Patent US7132286B2, “Method for neural stem cell differentiation using valproate” (Psychiatric Genomics, Inc., priority 2001, dated 2006)
Entries after “also recorded” stand apart in the source; their conditions may differ.

Legend:
rat cortical stem cells [1] = test: Differentiation of rat cortical stem cells into GABA expressing cells (GABA immunocytochemistry); assay type: cell-based; conditions: 6 days valproate vs control
Experimental: Drug treatment. For immunofluorescence and Western analysis, cells were treated daily with either 0.5 mM of valproate (Sigma), 10 ng/ml of BDNF (R & D Systems), 20 ng/ml of NT-3 (R & D Systems), 1 nM 9cis retinoic acid (Sigma) or a dilution of NCM for 6 or 7 days. In some experiments valproate was also added with NCM and/or 9cis RA for 7 days. For human stem cell experiments, valproate (0.5 mM) or BDNF (25 ng/ml) was added for 9 days. For neurite outgrowth experiments, cells were treated for 1 day with 0.5 mM valproate or 50 ng/ml of BDNF. Where applicable, medium was changed every 2 days. After about 5–10 days, preferably on day 6 (i.e., after 6 days of drug exposure) the cells were fixed with a 4% solution of para-formaldehyde (PFA) in PBS, prepared as follows: Immunofluorescent staining and visualization. Cells were plated at 20,000 cells/well in poly-L-ornithine/fibronectin (1 mg/ml) coated 24-well plates. […] For immunofluorescence, 3 different black and white pictures were taken by field of interest with a digital camera CoolSnap Fx (Princeton) corresponding to the exposure of Cy2, Cy3 and Hoechst fluorescence. […] The percentage of neurons, astrocytes and GABAergic cells was determined by comparing the number of cells immunopositive for β-tubulin III, GFAP and GABA to the number of bis-benzamide stained nuclei (i.e., total cell number). […]

[2] = test system: teratocarcinoma cell line NTera-2; conditions: NTera-2 cells (Skladchikova et al.); cited from earlier work
β tubulin-III = test: Western blot of β tubulin-III expression in rat cortical stem cells; assay type: cell-based; conditions: valproate 1 day
rat cortical stem cells [3] = test: Neuronal differentiation of rat cortical stem cells (β-tubulin III immunofluorescence, cell counting); assay type: cell-based
Source text: Isolation of cortical and striatal stem cells. Timed pregnant Sprague Dawley rats were obtained from Taconic at embryonic age E14–E15 were sacrificed by inhalation of excess carbon dioxide. The abdomen of the rat was cleaned with 70% ethanol and the uterus was removed quickly and aseptically on the bench top. The uterus was placed in ice cold HBSS (GIBCO Cat. #20012-027) in a 10 cm petridish. After rinsing the uterus in PBS, embryos were removed from the uterus, rinsed in HBSS and collected in cold HBSS (buffered with HEPES and sodium bicarbonate) in a 10 cm petridish and placed on ice.
Plating, expansion and passaging of cortical and striatal stem cells. A generous amount of the triturated cell suspension was left in the original 15 ml tube to avoid fibroblast contamination in cultures. About 4–5 ml of the 6 ml of cells suspension was used for plating. Cells were plated at a concentration of 1.3×10^3 cells to 3.0×10^3 per cm^2 in 100 mm dish. This culture is designated P0 (passage 0).
Following plating cells were expanded for about 3–4 days (Passage 1, P1). Cells were treated daily with 10 ng/ml bFGF. The cultures were never permitted to reach more than 70% confluency. Cultures were then passaged as follows: 10 ml of HBSS without Ca^2+ and Mg^2+ was added to each 100 mm dish and the cells incubated at 37° C. for 5–15 minutes, or until sufficient numbers of the stem cells were rounded up. It is not expected that all cells in the culture will round up as there are several cell types in the culture at P0. The pH of the HBSS should be neutral at all times during this incubation. Cells were then removed from the dish by pipetting with a 5 ml pipette, and collected in a 15 or 50 ml conical tube, and centrifuged at 1000 g for 5 minutes. Cells were gently re-suspended in medium, counted, and plated at a density of 1×10^6 cells in 10 cm dishes and expanded for about 2 days in bFGF (Passage 1, P1). At that time the cells were passaged as described and plated onto pre-coated poly-L-ornithine/fibronectin vessels at concentrations indicated below for each experiment. Cells were treated with bFGF for 2 additional days. Before each treatment the bFGF was removed from the cells by washing twice with DMEM/F 12 to induce cell differentiation. For neurite outgrowth experiments, cells were seeded at 5×10^3 cells/well in 24-well plates and treated immediately.
Drug treatment. For immunofluorescence and Western analysis, cells were treated daily with either 0.5 mM of valproate (Sigma), 10 ng/ml of BDNF (R & D Systems), 20 ng/ml of NT-3 (R & D Systems), 1 nM 9cis retinoic acid (Sigma) or a dilution of NCM for 6 or 7 days. In some experiments valproate was also added with NCM and/or 9cis RA for 7 days. For human stem cell experiments, valproate (0.5 mM) or BDNF (25 ng/ml) was added for 9 days. For neurite outgrowth experiments, cells were treated for 1 day with 0.5 mM valproate or 50 ng/ml of BDNF. Where applicable, medium was changed every 2 days. After about 5–10 days, preferably on day 6 (i.e., after 6 days of drug exposure) the cells were fixed with a 4% solution of para-formaldehyde (PFA) in PBS, prepared as follows:
Immunofluorescent staining and visualization. Cells were plated at 20,000 cells/well in poly-L-ornithine/fibronectin (1 mg/ml) coated 24-well plates. After fixation, the PBS was aspirated from the fixed cells and the cells were treated with blocking solution (10% normal goat serum-NGS-Jackson Labs), 0.3% Triton-Sigma, in PBS) to saturate non-specific sites and permeabilize the cells. […]

[4] = rat cortical stem cells, 6 days, vs control

CCCC(CCC)C(=O)O [valproate, 2-Propylpentanoic acid]
number and percentage of cells immuno-positive for GABA (rat cortical stem cells [1]): dramatic increase in the number; also recorded: increase in the number of GABA-positive neurons
proliferation and retinoic acid-induced neuronal differentiation [2]: inhibit the proliferation and block retinoic acid-induced neuronal differentiation
β-tubulin III expression by Western blot (β tubulin-III): increase of β-tubulin III expression; also recorded: increases β tubulin-III expression
increase of percentage of β-tubulin III expressing neurons over the control (rat cortical stem cells [3]; rat cortical neural stem cells, 6 days): ~5 fold
morphology of neurons (rat cortical stem cells [3]; rat cortical stem cells, 6 days valproate): growing in clusters and had longer process than cells in control
effect on neuronal differentiation (percentage of β-tubulin-III expressing cells) in words (rat cortical stem cells [3]; [4]): increases neuronal differentiation more efficiently than neurotrophins or growth factors
effect on number of neurons per field (rat cortical stem cells [3]; [4]): increases the number of neurons
effect on total cell number (proliferation), bis-benzimide nuclei (rat cortical stem cells [3]; [4]): without valproate affecting the total cell number; also recorded: total number of cells is comparable to control; also recorded: does not inhibit neural stem cell proliferation
percentage of β-tubulin III expressing neurons (mean+SD) (rat cortical stem cells [3]; rat cortical stem cells, daily treatment 6 days, 0.5 mM valproate, 10 ng/ml BDNF, 20 ng/ml NT-3, untreated control 6.2+1.8%): 25.8+0.8%
neuronal differentiation compared to control, in words (rat cortical stem cells [3]; rat cortical stem cells, daily treatment 7 days, 0.5 mM valproate, 0.5× NCM, 1 nM 9-cis RA): increased the neuronal differentiation
maximum percentage of neurons (rat cortical stem cells [3]; valproate added with 9-cis RA and NCM, 7 days, rat cortical stem cells): 60%
